Measured values as given in article PMC2217675, “Quantitative High-Throughput Screen Identifies Inhibitors of the Schistosoma mansoni Redox Cascade” (PLoS Neglected Tropical Diseases, 2008).
Read-outs that look alike come from different tables or passages of the source.

Tests used:
Assay in all cases: biochemical
[1] = target: T1, S. mansoni TGR/Prx2 (Schistosoma mansoni, UniProt Q962Y6)
T1 sequence (Q962Y6 1-598): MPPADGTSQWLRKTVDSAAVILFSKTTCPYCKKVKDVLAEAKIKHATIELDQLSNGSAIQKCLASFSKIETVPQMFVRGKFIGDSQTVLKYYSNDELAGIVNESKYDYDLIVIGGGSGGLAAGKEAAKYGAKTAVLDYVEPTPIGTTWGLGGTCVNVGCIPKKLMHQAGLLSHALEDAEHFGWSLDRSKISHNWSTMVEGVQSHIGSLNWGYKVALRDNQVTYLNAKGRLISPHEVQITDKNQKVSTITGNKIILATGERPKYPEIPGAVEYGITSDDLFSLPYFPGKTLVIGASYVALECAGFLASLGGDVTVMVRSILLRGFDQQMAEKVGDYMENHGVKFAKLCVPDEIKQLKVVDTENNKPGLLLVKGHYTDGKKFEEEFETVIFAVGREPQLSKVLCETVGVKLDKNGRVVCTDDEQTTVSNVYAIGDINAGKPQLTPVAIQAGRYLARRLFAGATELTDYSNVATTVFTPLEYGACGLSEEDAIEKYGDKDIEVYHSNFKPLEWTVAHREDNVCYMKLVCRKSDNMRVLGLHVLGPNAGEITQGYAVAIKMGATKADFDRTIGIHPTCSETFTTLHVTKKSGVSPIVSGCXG

[2] = target: T2, TGR (Schistosoma mansoni, UniProt Q962Y6)
T2 sequence (Q962Y6 1-598): T1 sequence (Q962Y6 1-598)

[3] = target: T1, S. mansoni TGR/Prx2; type: biochemical
[4] = DTNB as substrate, 15 nM TGR, read-out: TGR Assay IC50
[5] = initial high throughput screen of the collection, 25 nM TGR, 50 nM Prx2, read-out: qHTS IC50

Compound	IC50 [1] [nM]	IC50 [2] [nM]	further results
CCOC(=O)C(C(=O)OCC)c1cc(Br)c2noc3c2c1C(=O)c1ccccc1-3 [compound 10]	> 57000	9000	IC50 [3]: 530 nM
COC(=O)C(C(=O)OC)c1cc(Br)c2noc3c2c1C(=O)c1ccccc1-3 [compound 11]	120	80	–
COc1ccc(C(=O)c2no[n+]([O-])c2C(=O)c2ccc(OC)cc2)cc1 [compound 8]	4700	–	IC50 [2, 4]: 60 nM; IC50 [3, 5]: 10000 nM
CC1COc2c(N3CCN(C)CC3)c(F)cc3c(=O)c(C(=O)O)cn1c23 (centres unmarked) [Ofloxacin, reference compound]	–	–	activity in qHTS ([3]; primary screen): apparent activator
CC1=CC(=O)NP(=O)(Oc2ccc(Cl)cc2)N1 (centres unmarked) [compound 13]	420	550	–
O=P(Nc1ccccc1F)(c1ccccc1)c1nc2ccccc2s1 (centres unmarked) [compound 2]	23000	12000	–
CCOc1ccc(OP2(=O)NC(=O)C=C(C)N2)cc1 (centres unmarked) [compound 16]	180	600	–
O=C([O-])[C@H]([O-])[C@@H]([O-])C(=O)[O-].O=C([O-])[C@H]([O-])[C@@H]([O-])C(=O)[O-].[K+].[K+].[Sb+3].[Sb+3] [PAT, potassium antimonyl tartrate, reference compound]	–	–	IC50 ([3]; read-out: average IC50 of intraplate control titration): 14 ± 8 nM
CC1=CC(=O)NP(=O)(Oc2ccccc2)N1 (centres unmarked) [compound 15]	2000	4000	–
O=C(c1ccco1)c1no[n+]([O-])c1C(=O)c1ccco1 [compound 5]	1500	25	–
Cc1nn(C)cc1C(=O)c1no[n+]([O-])c1C(=O)c1cn(C)nc1C [compound 6]	–	–	IC50 [2, 4]: 2000 nM; IC50 [3, 5]: 24000 nM
O=C(c1cccs1)c1no[n+]([O-])c1C(=O)c1cccs1 [compound 7]	1500	–	IC50 [2, 4]: 20 nM; IC50 [3, 5]: 9200 nM
CCCCOc1cc(Br)c2noc3c2c1C(=O)c1ccccc1-3 [compound 12]	–	–	IC50 ([1]; read-out: Confirmation IC50): 840 nM; IC50 [2, 4]: 150 nM
N#Cc1c(-c2ccccc2)no[n+]1[O-] [compound 9]	–	1800	IC50 [3]: 8700 nM
